Source: patent publication US20100075907A1, “NEUROMEDIN U RECEPTOR AGONISTS AND USES THEREOF” (priority 2006, published 2010)
Non-standard residues stand in square brackets, D forms with d. Residues, ends and D or L forms follow the SMILES beside them. No end group written: not given here. *: point of attachment. X1 = CC(C)CCC[C@@H](C)[C@H]1CC[C@H]2[C@@H]3CC=C4C[C@@H](OC(=O)C*)CC[C@]4(C)[C@H]3CC[C@]12C; Succinimide(1-Et,3-yl) = CCN1C(=O)CC(*)C1=O; hArg = N=C(N)NCCCC[C@H](N)C(=O)O; dNle = CCCC[C@@H](N)C(=O)O

Columns and labels:
Assay type in all cases: cell-based
hNMUR1 [1] = molecular target: T1, hNMUR1 (Homo sapiens, UniProt Q9HB89); assay: In vitro functional assay, HEK-hR1 cells; design: expressed in transfected cells; host or cells: FLP-In CHO or HEK-293 FLP-In cells (pcDNA5); HEK-293/aeq17 lines (pIRES-puro) were also made
T1 sequence (Q9HB89 1-426): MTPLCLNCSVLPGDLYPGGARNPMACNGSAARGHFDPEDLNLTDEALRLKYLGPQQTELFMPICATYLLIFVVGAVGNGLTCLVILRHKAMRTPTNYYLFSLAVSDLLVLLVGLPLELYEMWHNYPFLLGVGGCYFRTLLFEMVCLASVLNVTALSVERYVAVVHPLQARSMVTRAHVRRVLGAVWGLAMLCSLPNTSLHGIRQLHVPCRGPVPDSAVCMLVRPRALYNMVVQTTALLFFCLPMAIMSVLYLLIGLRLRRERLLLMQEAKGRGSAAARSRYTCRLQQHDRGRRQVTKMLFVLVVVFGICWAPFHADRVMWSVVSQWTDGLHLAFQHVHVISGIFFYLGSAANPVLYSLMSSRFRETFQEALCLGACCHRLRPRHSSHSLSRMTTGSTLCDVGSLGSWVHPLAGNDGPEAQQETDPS
Excerpt: (§1) Human, mouse or rat cDNAs encoding NMUR1 or NMUR2 (as described in Howard et al. Nature 406: 70-74 (2000) were subcloned in pcDNA5 (Invitrogen) and transfected into FLP-In CHO cells and HEK-293 FLP-In cells purchased from Invitrogen (Carlsbad, Calif.) using lipofectamine (Invitrogen). The Flp-In system allows integration and expression of a particular gene of interest at a specific genomic location utilizing the Flp recombinase from yeast. The transfected cells were selected by growth in medium containing 200 μg/mL hygromycin (Invitrogen). Populations were frozen at early passage numbers, and these stocks were used for further studies. Stable clones that expressed the mRNAs were identified functionally by FLIPR as well as by RT-PCR. […] Two different rodent NMUR1 cell lines were thus generated: one with the codon as predicted from the genomic databases and another cell line with an engineered methionine (ATG) as the start codon. Additionally, stable cell lines expressing the human receptors were generated in HEK-293/aeq17 cells which stably express the aequorin gene under the CMV promoter. The human NMUR2 cDNA was cloned into pcDNA3.1 and human NMUR1 was subcloned into pIRES-puro (Clontech, Mountain View, Calif.), after transfection cells were selected in media containing G418 and either hygromycin (NMUR2) or puromycin (NMUR1).
(§2) The NMU receptors signal primarily through Gαq/11 proteins; therefore calcium mobilization assays can be utilized for functional activity.
(§3) Stable cell lines expressing human and or rodent NMUR1 or human NMUR2 receptors were plated at a density of 12,000 cells per well overnight on poly-lysine coated 384-well black-walled plates. The following day, the media was removed from the plates and the cells were subsequently loaded with Fluo-3 (Molecular Probes), a calcium sensitive dye, diluted in FLIPR buffer (1× Hank's buffered saline containing 20 mM HEPES, 0.1% BSA, 2.5 mM probenecid (Sigma) and 1.6 mM TR40). All reagents are from Invitrogen unless otherwise noted. Peptide stocks were resuspended in DMSO at a stock concentration of 2 mM and diluted in FLIPR buffer on the day of the experiment to a 4 μM working stock solution.
(§4) After a 90 minute incubation at room-temperature, cell plates were loaded onto a FLIPR (Molecular Devices) to monitor cellular fluorescence (excitation=488 nm; emission=540 nm) before and after compound/peptide addition. Eight to twelve point dose responses were tested on NMUR-expressing cell lines using FLIPR with 1 μM peptide as the highest dose. The response after peptide addition was taken as the maximum fluorescence units minus the fluorescence immediately prior to stimulation for each well. EC50 values were calculated using GraphPad Prism (San Diego, Calif.) software.
In addition to FLIPR, NMU receptor function can also be evaluated using an aequorin assay. Stable cell lines expressing the aequorin jelly fish gene can be used to report the activation of GPCRs by monitoring intracellular calcium mobilization. The objective is to identify compounds which specifically stimulate aequorin bioluminescence. Calcium-dependent luminescence is generated by the treatment of cells with the coelenterate luciferin, coelenterazine. Briefly, confluent monolayers of HEK-293/aeq 17 cells expressing hNMUR1 or hNMUR2 are “charged” with coelenterazine (Molecular Probes, Carlsbad, Calif.). Confluent T75 flasks are rinsed with media containing 300 μM glutathione and 0.1% FBS. Cells are incubated at 37° C. for one hour in 8 mL media, 0.1% FBS, 300 μM glutathione, and 20 μM coelenterazine. T75 flasks are subsequently rinsed with 6 mL ECB buffer (140 mM NaCl, 20 mM KCl, 20 mM HEPES, 5 mM glucose, 1 mM MgCl, 1 mM CaCl2, 0.1 mg/mL BSA, PH 7.3-7.4). Cells are removed from the flask in ECB buffer, pelleted, and resuspended at a density of 2×10^5 cells/mL. Agonists are added to the cells and activity is determined using a luminometer. […]

rat NMUR2 = rat NMUR2 (Rattus norvegicus, UniProt Q9ESQ4); assay: FLIPR calcium mobilization assay, rat NMUR2; design: expressed in transfected cells; host or cells: FLP-In CHO or HEK-293 FLP-In cells (pcDNA5); settings: for % Activity: maximum response at 1 μM compared to hNMU-25
Chain of rat NMUR2 (Q9ESQ4 whole entry): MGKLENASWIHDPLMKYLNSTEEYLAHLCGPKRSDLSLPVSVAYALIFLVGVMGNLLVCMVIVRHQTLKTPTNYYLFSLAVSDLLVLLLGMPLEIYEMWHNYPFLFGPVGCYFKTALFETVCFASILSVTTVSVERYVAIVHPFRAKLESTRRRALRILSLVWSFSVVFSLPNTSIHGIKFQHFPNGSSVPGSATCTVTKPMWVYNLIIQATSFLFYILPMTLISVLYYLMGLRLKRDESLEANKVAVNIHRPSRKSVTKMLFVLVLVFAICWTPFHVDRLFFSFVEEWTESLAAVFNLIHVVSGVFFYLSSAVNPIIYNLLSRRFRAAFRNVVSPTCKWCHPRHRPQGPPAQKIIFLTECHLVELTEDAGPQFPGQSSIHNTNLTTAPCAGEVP
Excerpt: as §1, §2, §3, §4
(§5) In vitro responses of Neuromedin U receptor agonists (NMU1 to NMU25) in the FLIPR assay for human (Table 3), mouse (Table 4) and rat (Table 5) NMUR1 and NMUR2. EC50s are reported in nM values. Percent activity refers to the maximum response at 1 μM compared to the hNMU-25 response at the same concentration. NT=not tested.

hNMUR1 [2] = molecular target: T1, hNMUR1; assay: FLIPR calcium mobilization assay, human NMUR1; design: expressed in transfected cells; host or cells: FLP-In CHO or HEK-293 FLP-In cells (pcDNA5); HEK-293/aeq17 lines (pIRES-puro) were also made; settings: human NMUR1; for % Activity: maximum response at 1 μM compared to hNMU-25 response at same concentration
Excerpt: as §1, §2, §3, §4, §5

mouse NMUR2 = mouse NMUR2 (Mus musculus, UniProt Q8BZ39); assay: FLIPR calcium mobilization assay, mouse NMUR2; design: expressed in transfected cells; host or cells: FLP-In CHO or HEK-293 FLP-In cells (pcDNA5); settings: for % Activity: maximum response at 1 μM compared to hNMU-25, mouse NMUR2
Chain of mouse NMUR2 (Q8BZ39 whole entry): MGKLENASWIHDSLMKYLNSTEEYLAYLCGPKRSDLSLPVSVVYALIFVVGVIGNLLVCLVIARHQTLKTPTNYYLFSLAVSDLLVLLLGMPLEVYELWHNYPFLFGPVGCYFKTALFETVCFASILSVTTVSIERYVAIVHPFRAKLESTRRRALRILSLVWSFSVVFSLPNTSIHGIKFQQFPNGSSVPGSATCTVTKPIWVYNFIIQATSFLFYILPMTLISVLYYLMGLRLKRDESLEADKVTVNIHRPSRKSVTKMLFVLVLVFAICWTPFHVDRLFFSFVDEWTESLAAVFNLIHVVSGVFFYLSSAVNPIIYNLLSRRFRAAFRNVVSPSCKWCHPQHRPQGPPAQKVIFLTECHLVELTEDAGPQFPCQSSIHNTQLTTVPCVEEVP
Excerpt: as §1, §2, §3, §4, §5

## CC(C)C[C@H](NC(=O)[C@H](Cc1c[nH]c2ccccc12)NC(=O)[C@H](Cc1ccccc1)NC(=O)CNC(=O)[C@H](CCCNC(=N)N)NC(=O)[C@H](CO)NC(=O)[C@H](CCC(N)=O)NC(=O)[C@H](CO)NC(=O)[C@H](C)NC(=O)[C@H](Cc1ccccc1)NC(=O)[C@@H]1CCCN1C(=O)[C@H](CO)NC(=O)[C@H](CCC(N)=O)NC(=O)[C@H](Cc1ccccc1)NC(=O)[C@H](CCC(=O)O)NC(=O)[C@H](CCC(=O)O)NC(=O)[C@H](CC(=O)O)NC(=O)[C@@H](NC(=O)[C@H](CCCNC(=N)N)NC(=O)[C@@H](N)Cc1ccccc1)C(C)C)C(=O)N[C@@H](Cc1ccccc1)C(=O)N[C@@H](CCCNC(=N)N)C(=O)N[C@@H](C)C(=O)N[C@@H](CCCCNC(=N)N)C(=O)N[C@@H](CC(N)=O)C(N)=O [Agonist P] (H-FRVDEEFQSPFASQSRGFWLFRA[hArg]N-NH2; N-terminus assumed)
hNMUR1 [1]; Table 9, HEK-hR1, functional
  % Activity: 11%

## CCCC[C@@H](NC(=O)[C@H](CCCNC(=N)N)NC(=O)[C@@H]1CCCN1C(=O)[C@H](CCCNC(=N)N)NC(=O)[C@H](Cc1ccccc1)NC(=O)[C@H](CC(C)C)NC(=O)[C@H](Cc1c[nH]c2ccccc12)NC(=O)[C@H](Cc1ccccc1)NC(=O)CNC(=O)[C@H](CCCNC(=N)N)NC(=O)[C@H](CO)NC(=O)[C@H](CCC(N)=O)NC(=O)[C@H](CO)NC(=O)[C@H](C)NC(=O)[C@H](Cc1ccccc1)NC(=O)[C@@H]1CCCN1C(=O)[C@H](CO)NC(=O)[C@H](CCC(N)=O)NC(=O)[C@H](Cc1ccccc1)NC(=O)[C@H](CCC(=O)O)NC(=O)[C@H](CCC(=O)O)NC(=O)[C@H](CC(=O)O)NC(=O)[C@@H](NC(=O)[C@H](CCCNC(=N)N)NC(=O)[C@@H](N)Cc1ccccc1)C(C)C)C(N)=O [Agonist Q] (H-FRVDEEFQSPFASQSRGFWLFRPR[dNle]-NH2)
hNMUR1 [1]; Table 9, HEK-hR1, functional
  % Activity: 0%
  EC50: > 1000 nM

## CCN1C(=O)CC(SC[C@H](NC(C)=O)C(=O)NCC(=O)N[C@@H](Cc2ccc(O)cc2)C(=O)N[C@@H](Cc2ccccc2)C(=O)N[C@@H](CC(C)C)C(=O)N[C@@H](Cc2ccccc2)C(=O)N[C@@H](CCCNC(=N)N)C(=O)N2CCC[C@H]2C(=O)N[C@@H](CCCNC(=N)N)C(=O)N[C@@H](CC(N)=O)C(N)=O)C1=O (stereo partly drawn) [NMU6] (Ac-C(Succinimide(1-Et,3-yl))GYFLFRPRN-NH2)
Rat NMUR2; rat NMUR2
  % Activity: 100%
hNMUR1 [2]
  % Activity: 96.7%
Mouse NMUR2
  % Activity: 100%

## CCN1C(=O)CC(SC[C@H](NC(C)=O)C(=O)N[C@@H](Cc2ccccc2)C(=O)N[C@@H](CCCNC(=N)N)C(=O)N[C@H](C(=O)N[C@@H](CC(=O)O)C(=O)N[C@@H](CCC(=O)O)C(=O)N[C@@H](CCC(=O)O)C(=O)N[C@@H](Cc2ccccc2)C(=O)N[C@@H](CCC(N)=O)C(=O)N[C@@H](CO)C(=O)N2CCC[C@H]2C(=O)N[C@@H](Cc2ccccc2)C(=O)N[C@@H](C)C(=O)N[C@@H](CO)C(=O)N[C@@H](CCC(N)=O)C(=O)N[C@@H](CO)C(=O)N[C@@H](CCCNC(=N)N)C(=O)NCC(=O)N[C@@H](Cc2ccc(O)cc2)C(=O)N[C@@H](Cc2ccccc2)C(=O)N[C@@H](CC(C)C)C(=O)N[C@@H](Cc2ccccc2)C(=O)N[C@@H](CCCNC(=N)N)C(=O)N2CCC[C@H]2C(=O)N[C@@H](CCCNC(=N)N)C(=O)N[C@@H](CC(N)=O)C(N)=O)C(C)C)C1=O (stereo partly drawn) [NMU8] (Ac-C(Succinimide(1-Et,3-yl))FRVDEEFQSPFASQSRGYFLFRPRN-NH2)
Rat NMUR2; rat NMUR2
  % Activity: 94.7%
hNMUR1 [2]
  % Activity: 99.1%
Mouse NMUR2
  % Activity: 100%

## CC(=O)N[C@@H](CSCC(=O)O[C@H]1CC[C@@]2(C)C(=CC[C@H]3[C@@H]4CC[C@H]([C@H](C)CCCC(C)C)[C@@]4(C)CC[C@@H]32)C1)C(=O)NCC(=O)N[C@@H](Cc1ccc(O)cc1)C(=O)N[C@@H](Cc1ccccc1)C(=O)N[C@@H](CC(C)C)C(=O)N[C@@H](Cc1ccccc1)C(=O)N[C@@H](CCCNC(=N)N)C(=O)N1CCC[C@H]1C(=O)N[C@@H](CCCNC(=N)N)C(=O)N[C@@H](CC(N)=O)C(N)=O [NMU11] (Ac-C(X1)GYFLFRPRN-NH2)
Rat NMUR2; rat NMUR2
  % Activity: 33.2%
hNMUR1 [2]
  % Activity: 20.6%
Mouse NMUR2
  % Activity: 70.5%

## CC(C)C[C@H](NC(=O)[C@H](Cc1ccccc1)NC(=O)[C@@H](N)Cc1ccc(O)cc1)C(=O)N[C@@H](Cc1ccccc1)C(=O)N[C@@H](CCCNC(=N)N)C(=O)N1CCC[C@H]1C(=O)N[C@@H](CCCNC(=N)N)C(=O)N[C@@H](CC(N)=O)C(N)=O [NMU-8, reference compound]
hNMUR1 [1]; Table 9, HEK-hR1, functional
  % Activity: 100%

## Ac-C4FRVDEEFQSPFASQSRGYFLFRPRN-CONH2 ({Ac-C(PEG 20 kDa)}-FRVDEEFQSPFASQSRGYFLFRPRN-NH2) [NMU21, C4 = Cys(PEG)20 kDa]
Rat NMUR2; FLIPR, rat NMUR2
  EC50: 7 nM
Rat NMUR2; rat NMUR2
  % Activity: 99.2%
hNMUR1 [2]; FLIPR
  EC50: 14.5 nM
hNMUR1 [2]
  % Activity: 93.2%

## Ac-FFRPRN-NH2 [Agonist F, Ac-FFRPRN-CONH2]
hNMUR1 [1]; Table 8, HEK-hR1, functional
  % Activity: 96%
  IC50: 42 nM

## FALFRPRN-NH2 [Agonist N]
hNMUR1 [1]; Table 9, HEK-hR1, functional
  % Activity: 87%

## H-FRVDEEFQSPFASQSRGYFLFRPRN-NH2 [hNMU-25, reference compound]
Rat NMUR2; functional data, rat R2
  IC50: 1.6 nM
hNMUR1 [1]; Table 9, HEK-hR1, functional
  % Activity: 100%
  EC50: 5.5 nM
Mouse NMUR2; functional data, mouse R2
  IC50: 0.2 nM

## H-FRVDEEFQSPFASQSRGYFWRPRN-NH2 [Agonist G]
hNMUR1 [1]; Table 8, HEK-hR1, functional
  % Activity: 91%

## H-FWLFRARN-NH2 [Agonist L]
hNMUR1 [1]; Table 9, HEK-hR1, functional
  % Activity: 74%
  EC50: > 1000 nM

## H-YFGWRPRN-NH2 [Agonist C]
hNMUR1 [1]; Table 8, HEK-hR1, functional
  % Activity: 87%
  IC50: 1.1 nM

## WALFRARN-NH2 [Agonist M]
hNMUR1 [1]; Table 9, HEK-hR1, functional
  % Activity: 0%
  EC50: > 1000 nM

## YFWRPRN-NH2 [Agonist A, YFWRPRN-CONH2]
hNMUR1 [1]; Table 8, HEK-hR1, functional
  % Activity: 92%
  IC50: 2.7 nM
